Results taken from patent US11174253B2, “Compound and pharmaceutical composition containing the same” (ALPHALA CO., LTD., priority 2017, dated 2021).

Tested on: hepatocellular carcinoma cell line Hep3B
Experiment: Growth inhibition of Hep3B cells, 48 hr treatment, Hoechst 33342 nucleus count (GE InCell 2200)
Type: cell-based
Details: Homo sapiens, Table 1, ratio of number of tumor cells treated with 10 μM compound to non-treated cells
Method: The potency of selected compounds was defined by the growth inhibition ability to the hepatocellular carcinoma cell line Hep3B. The Hep3B cells were treated with selected compounds for 48 hr under 37° C., 5% CO2, and 95% relative humidity.
The number of treated cells was determined by GE InCell 2200 system, and treated cells were stained with Hoechst 33342 which can reveal the remained nucleus in culture plate. The proportion of survival cells then were calculated with the ratio of treated/non-treated cells. The growth inhibition/cytotoxic effect of selected compounds were evaluated by the following protocol of NCI-60 screening platform. The human tumor cell lines are plating on a 96 well plate in a fixed density 24 hr prior compound treatment. Compounds with multiple concentrations are then added into each well for further 48 hr incubation. Cell viability is assessed by MTS method and the potency of compound is represented by GI50 and LC50 calculated by MTS result.
Herein, the “Ratio in 10 μM (%)” in the following Tables 1-6 refers to the ratio of the number of tumor cells treated with 10 μM of selected compounds to the number of non-treated tumer cells.

Structure (SMILES) | viability at 10 µM [%]
CCCc1ccc(-c2nnc(NC(=O)Cc3ccc4nc(N)sc4c3)s2)cc1 [Compound 1-33, 2-(2-aminobenzo[d]thiazol-6-yl)-N-(5-(4-propylphenyl)-1,3,4-thiadiazol-2-yl)acetamide] | 44
CN(C)c1ccc(-c2nnc(NC(=O)Cc3ccc4nc(N)sc4c3)s2)cc1 [Compound 1-9, 2-(2-aminobenzo[d]thiazol-6-yl)-N-(5-(4-(dimethylamino)phenyl)-1,3,4-thiadiazol-2-yl)acetamide] | 60

Same assay, conditions: Homo sapiens, Table 3, ratio of number of tumor cells treated with 10 μM compound to non-treated cells

Structure (SMILES) | viability at 10 µM [%]
COc1ccc(-c2sc(NC(=O)Cc3ccc4nc(N)sc4c3)nc2-c2ccc(C)cc2)cc1OC [Compound 3-5, 2-(2-aminobenzo[d]thiazol-6-yl)-N-(5-(3,4-dimethoxyphenyl)-4-(p-tolyl)thiazol-2-yl)acetamide] | 85
CCCOc1ccc(-c2nc(NC(=O)Cc3ccc4nc(N)sc4c3)sc2-c2ccc(F)cc2)cc1 [Compound 3-6, 2-(2-aminobenzo[d]thiazol-6-yl)-N-(5-(4-fluorophenyl)-4-(4-propoxyphenyl)thiazol-2-yl)acetamide] | 83
CCOc1ccc(-c2csc(NC(=O)Cc3ccc4nc(N)sc4c3)n2)c(OCC)c1 [Compound 3-12, 2-(2-aminobenzo[d]thiazol-6-yl)-N-(4-(2,4-diethoxyphenyl)thiazol-2-yl)acetamide] | 50

Same assay, conditions: Homo sapiens, Table 4, ratio of number of tumor cells treated with 10 μM compound to non-treated cells

Structure (SMILES) | viability at 10 µM [%]
CCOc1ccc(-c2ccc(NC(=O)Cc3ccc4nc(N)sc4c3)s2)cc1 [Compound 4-2, 2-(2-aminobenzo[d]thiazol-6-yl)-N-(5-(4-ethoxyphenyl)thiophen-2-yl)acetamide] | 89

Same assay, conditions: Homo sapiens, Table 5, ratio of number of tumor cells treated with 10 μM compound to non-treated cells

Structure (SMILES) | viability at 10 µM [%]
O=C(Nc1nc(-c2ccc(Br)cc2)c(Oc2ccccc2)s1)c1ccc([N+](=O)[O-])s1 [Compound 5-1, N-(4-(4-bromophenyl)-5-phenoxythiazol-2-yl)-5-nitrothiophene-2-carboxamide] | 66
COc1cc(-c2nc(NC(=O)c3ccc([N+](=O)[O-])s3)sc2Oc2ccccc2)cc(OC)c1OC [Compound 5-61, 5-nitro-N-(5-phenoxy-4-(3,4,5-trimethoxyphenyl)thiazol-2-yl)thiophene-2-carboxamide] | 59
CCC(C)(C)c1ccc(-c2nc(NC(=O)c3ccc([N+](=O)[O-])s3)sc2Oc2ccccc2)cc1 [Compound 5-59, 5-nitro-N-(4-(4-(tert-pentyl)phenyl)-5-phenoxythiazol-2-yl)thiophene-2-carboxamide] | 38
COCCOc1ccc(-c2nc(NC(=O)c3ccc([N+](=O)[O-])s3)sc2Oc2cccnc2)cc1 [Compound 5-15, N-(4-(4-(2-methoxyethoxy)phenyl)-5-(pyridin-3-yloxy)thiazol-2-yl)-5-nitrothiophene-2-carboxamide] | 54
O=C(Nc1nc(-c2ccc(F)cc2)c(Oc2ccccc2C(F)(F)F)s1)c1ccc([N+](=O)[O-])s1 [Compound 5-31, N-(4-(4-fluorophenyl)-5-(2-(trifluoromethyl)phenoxy)thiazol-2-yl)-5-nitrothiophene-2-carboxamide] | 48
CCCOc1ccc(-c2nc(NC(=O)c3ccc([N+](=O)[O-])s3)sc2Oc2ccc(C#N)cc2OC)cc1 [Compound 5-40, N-(5-(4-cyano-2-methoxyphenoxy)-4-(4-propoxyphenyl)thiazol-2-yl)-5-nitrothiophene-2-carboxamide] | 46
CCOc1ccc(-c2nc(N(C)C(=O)c3ccc([N+](=O)[O-])s3)sc2Oc2ccccc2)cc1 [Compound 5-82, N-(4-(4-ethoxyphenyl)-5-phenoxythiazol-2-yl)-N-methyl-5-nitrothiophene-2-carboxamide] | 59
CCOc1ccc(-c2nc(NC(=O)c3ccc([N+](=O)[O-])s3)sc2Oc2ccccc2F)cc1 [Compound 5-57, N-(4-(4-ethoxyphenyl)-5-(2-fluorophenoxy)thiazol-2-yl)-5-nitrothiophene-2-carboxamide] | 43
CCCCc1ccc(Oc2sc(NC(=O)c3ccc([N+](=O)[O-])s3)nc2-c2ccc(C(C)(C)C)cc2)cc1 [Compound 5-89, N-(4-(4-(tert-butyl)phenyl)-5-(4-butylphenoxy)thiazol-2-yl)-5-nitrothiophene-2-carboxamide] | 36
CC(C)(C)C#Cc1ccc(-c2nc(NC(=O)c3ccc([N+](=O)[O-])s3)sc2Oc2ccccc2)s1 [Compound 5-41, N-(4-(5-(3,3-dimethylbut-1-yn-1-yl)thiophen-2-yl)-5-phenoxythiazol-2-yl)-5-nitrothiophene-2-carboxamide] | 41
CCCOc1ccc(-c2nc(NC(=O)c3ccc([N+](=O)[O-])s3)sc2Oc2ccc(F)cc2Cl)cc1 [Compound 5-45, N-(5-(2-chloro-4-fluorophenoxy)-4-(4-propoxyphenyl)thiazol-2-yl)-5-nitrothiophene-2-carboxamide] | 28
Cc1ccc(Oc2sc(NC(=O)c3ccc([N+](=O)[O-])s3)nc2-c2ccc(C(C)(C)C)cc2)cc1 [Compound 5-105, N-(4-(4-(tert-butyl)phenyl)-5-(p-tolyloxy)thiazol-2-yl)-5-nitrothiophene-2-carboxamide] | 30
COc1ccc(-c2nc(NC(=O)c3ccc([N+](=O)[O-])s3)sc2Oc2ccccc2)cc1 [Compound 5-34, N-(4-(4-methoxyphenyl)-5-phenoxythiazol-2-yl)-5-nitrothiophene-2-carboxamide] | 54
CCOc1ccc(-c2nc(NC(=O)c3ccc([N+](=O)[O-])s3)sc2Oc2ccccc2)cn1 [Compound 5-51, N-(4-(6-ethoxypyridin-3-yl)-5-phenoxythiazol-2-yl)-5-nitrothiophene-2-carboxamide] | 43
CCCCOc1ccc(-c2nc(NC(=O)c3ccc([N+](=O)[O-])s3)sc2Oc2ccc(C(C)(C)CC)cc2)cc1 [Compound 5-98, N-(4-(4-butoxyphenyl)-5-(4-(tert-pentyl)phenoxy)thiazol-2-yl)-5-nitrothiophene-2-carboxamide] | 50
CCCOc1ccc(-c2nc(NC(=O)c3ccc([N+](=O)[O-])s3)sc2Oc2cc(F)cc(F)c2)cc1 [Compound 5-50, N-(5-(3,5-difluorophenoxy)-4-(4-propoxyphenyl)thiazol-2-yl)-5-nitrothiophene-2-carboxamide] | 42
CNC(=O)c1ccc(-c2nc(NC(=O)c3ccc([N+](=O)[O-])s3)sc2Oc2ccc(F)cc2)cc1 [Compound 5-35, N-(5-(4-fluorophenoxy)-4-(4-(methylcarbamoyl)phenyl)thiazol-2-yl)-5-nitrothiophene-2-carboxamide] | 68

Same assay, conditions: Homo sapiens, Table 6, ratio of number of tumor cells treated with 10 μM compound to non-treated cells

Structure (SMILES) | viability at 10 µM [%]
CCOc1ccc(-c2nc(NC(=O)c3ccc([N+](=O)[O-])s3)sc2Br)cc1 [Compound 6-17, N-(5-bromo-4-(4-ethoxyphenyl)thiazol-2-yl)-5-nitrothiophene-2-carboxamide] | 53
CCOc1ccc(-c2nc(NC(=O)c3ccc([N+](=O)[O-])s3)sc2C(=O)Nc2cc(F)cc(F)c2)cc1 [Compound 6-27, N-(3,5-difluorophenyl)-4-(4-ethoxyphenyl)-2-(5-nitrothiophene-2-carboxamido)thiazole-5-carboxamide] | 36
CCCOc1ccc(-c2nc(NC(=O)c3ccc([N+](=O)[O-])s3)sc2C(=O)OCC)cc1 [Compound 6-23, ethyl 2-(5-nitrothiophene-2-carboxamido)-4-(4-propoxyphenyl)thiazole-5-carboxylate] | 33
CC(C)(C)c1ccc(-c2nc(NC(=O)c3ccc([N+](=O)[O-])s3)sc2Cc2ccc(F)cc2)cc1 [Compound 6-37, N-(4-(4-(tert-butyl)phenyl)-5-(4-fluorobenzyl)thiazol-2-yl)-5-nitrothiophene-2-carboxamide] | 39
CC(C)(C)c1ccc(-c2nc(NC(=O)c3ccc([N+](=O)[O-])s3)sc2-c2cc(F)c(F)c(F)c2)cc1 [Compound 6-51, N-(4-(4-(tert-butyl)phenyl)-5-(3,4,5-trifluorophenyl)thiazol-2-yl)-5-nitrothiophene-2-carboxamide] | 50
CCCOc1ccc(-c2nc(NC(=O)c3ccc([N+](=O)[O-])s3)sc2C(=O)N2CCN(C)CC2)cc1 [Compound 6-30, N-(5-(4-methylpiperazine-1-carbonyl)-4-(4-propoxyphenyl)thiazol-2-yl)-5-nitrothiophene-2-carboxamide] | 58
Cc1ccc(-c2nc(NC(=O)c3ccc([N+](=O)[O-])s3)sc2-c2ccc(F)cc2)cc1 [Compound 6-6, N-(5-(4-fluorophenyl)-4-(p-tolyl)thiazol-2-yl)-5-nitrothiophene-2-carboxamide] | 48
CCOc1ccc(-c2nc(NC(=O)c3ccc([N+](=O)[O-])s3)sc2Cc2cccc(F)c2)cc1 [Compound 6-36, N-(4-(4-ethoxyphenyl)-5-(3-fluorobenzyl)thiazol-2-yl)-5-nitrothiophene-2-carboxamide] | 41
CCOc1ccc(-c2nc(NC(=O)c3ccc([N+](=O)[O-])s3)sc2N(C)c2ccccc2)cc1 [Compound 6-28, N-(4-(4-ethoxyphenyl)-5-(methyl (phenyl)amino)thiazol-2-yl)-5-nitrothiophene-2-carboxamide] | 31
O=C(Nc1nc(-c2ccc(Br)cc2)cs1)c1ccc([N+](=O)[O-])s1 [Compound 6-7, N-(4-(4-bromophenyl)thiazol-2-yl)-5-nitrothiophene-2-carboxamide] | 81
